From patent US20050054006A1, “Combinatorial fluorescent library based on the styryl scaffold” (New York University, priority 2003, published 2005)

Assay: Fluorescence excitation/emission of the styryl dye library compounds
Assay type: physicochemical
Details: EX/EM peak no. 1

Cc1cccc(C=C/C=C/c2ccc(N(C)C)cc2)[n+]1C.[I-] [Compound L37]
EM(nm): 680 nm | EX(nm): 480 nm

COc1ccccc1C=Cc1cc[n+](C)c(Br)c1.[I-] [Compound F9]
EM(nm): 520 nm | EX(nm): 400 nm

C(=Cc1c2ccccc2cc2ccccc12)c1cc[n+](C23CC4CC(CC(C4)C2)C3)cc1.[Br-] [Compound B34]
EM(nm): 610 nm | EX(nm): 460 nm

C[n+]1ccc(/C=C/c2ccc3c(c2)OCO3)c2ccccc21.[I-] [Compound G39]
EM(nm): 590 nm | EX(nm): 430 nm

COc1cc(C=Cc2cccc(C)[n+]2C)cc(OC)c1OC.[I-] [Compound L13]
EM(nm): 540 nm | EX(nm): 380 nm

CN(C)c1ccc(C=CC=Cc2cccc[n+]2C)cc1.[I-] [Compound C37]
EM(nm): 680 nm | EX(nm): 520 nm

COc1cc(OC)c(OC)cc1C=Cc1cc[n+](C)c(Br)c1.[I-] [Compound F38]
EM(nm): 540 nm | EX(nm): 460 nm

COc1ccc(C=Cc2cccc[n+]2C)c2ccccc12.[I-] [Compound C14]
EM(nm): 530 nm | EX(nm): 390 nm

COc1ccccc1C=Cc1cc[n+](C23CC4CC(CC(C4)C2)C3)cc1.[Br-] [Compound B9]
EM(nm): 500 nm | EX(nm): 390 nm

COc1ccc2c(ccc(C=CC=Cc3ccccc3[N+](=O)[O-])[n+]2C)c1.[I-] [Compound I36]
EM(nm): 530 nm | EX(nm): 360 nm

C[n+]1ccc(C=Cc2ccccn2)cc1Br.[I-] [Compound F40]
EM(nm): 640 nm | EX(nm): 540 nm

COc1cc(C=Cc2cc[n+](C)c(-c3cc(C)ccn3)c2)cc(OC)c1OC.[I-] [Compound J13]
EM(nm): 590 nm

C[n+]1ccc(C=Cc2ccc(F)cc2)cc1.[I-] [Compound A30]
EM(nm): 590 nm | EX(nm): 420-440 nm

C[n+]1ccc(/C=C/c2ccc(O)cc2)c2ccccc21.[I-] [Compound G16]
EM(nm): 560 nm | EX(nm): 430 nm

COc1cc(C=Cc2cc[n+](C)c3ccccc23)cc(OC)c1OC.[I-] [Compound G13]
EM(nm): 620 nm | EX(nm): 420 nm

Fc1ccccc1C=Cc1cc[n+](C23CC4CC(CC(C4)C2)C3)cc1.[Br-] [Compound B29]
EM(nm): 560 nm | EX(nm): 400-420 nm

CCc1ccc(C=Cc2cc(OC)c(OC)c(OC)c2)[n+](C)c1.[I-] [Compound E13]
EM(nm): 540 nm | EX(nm): 380 nm

COc1ccc(C=Cc2cc[n+](C)c(-c3cc(C)ccn3)c2)c2ccccc12.[I-] [Compound J14]
EM(nm): 580 nm | EX(nm): 420-480 nm

C(=Cc1ccc(OCc2ccccc2)c(OCc2ccccc2)c1)c1cc[n+](C23CC4CC(CC(C4)C2)C3)cc1.[Br-] [Compound B12]
EM(nm): 530 nm | EX(nm): 340-444 nm

Cc1cccc(C=Cc2ccc3c(c2)OCO3)[n+]1C.[I-] [Compound L39]
EM(nm): 510 nm | EX(nm): 390 nm

Cc1ccnc(-c2cc(C=CC=Cc3ccc(N(C)C)cc3)cc[n+]2C)c1.[I-] [Compound J37]
EM(nm): 730 nm | EX(nm): 550(broad) nm

CCc1ccc(C=Cc2cccc3ccccc23)[n+](C)c1.[I-] [Compound E32]
EM(nm): 560 nm | EX(nm): 420 nm

COc1cc(C=Cc2cc[n+](C)cc2)cc(OC)c1OC.[I-] [Compound A13]
EM(nm): 550 nm | EX(nm): 390 nm

C[n+]1c(C=Cc2cccc(Br)c2)ccc2ccccc21.[I-] [Compound H4]
EM(nm): 640 nm | EX(nm): 530 nm

COc1ccc(C=Cc2cccc(C)[n+]2C)cc1O.[I-] [Compound L15]
EM(nm): 570 nm | EX(nm): 390 nm

COc1cc(C=Cc2cccc[n+]2C)cc(OC)c1OC.[I-] [Compound C13]
EM(nm): 540 nm | EX(nm): 380 nm

C[n+]1c(C=Cc2c3ccccc3cc3ccccc23)ccc2ccccc21.[I-] [Compound H34]
EM(nm): 650 nm | EX(nm): 460 nm

CC(=O)Nc1ccc(C=Cc2cc[n+](C34CC5CC(CC(C5)C3)C4)cc2)cc1.[Br-] [Compound B18]
EM(nm): 580 nm | EX(nm): 420 nm

CC(=O)Nc1ccc(C=Cc2cc[n+](C)cc2)cc1.[I-] [Compound A18]
EM(nm): 610 nm | EX(nm): 420 nm

Brc1ccc(C=Cc2cc[n+](C34CC5CC(CC(C5)C3)C4)cc2)cc1.[Br-] [Compound B5]
EM(nm): 570 nm | EX(nm): 385 nm

C[n+]1ccc(/C=C/c2ccc3c(c2)OCO3)cc1Br.[I-] [Compound F39]
EM(nm): 540 nm | EX(nm): 400-420 nm

Cc1ccnc(-c2cc(/C=C/c3ccccn3)cc[n+]2C)c1.[I-] [Compound J40]
EM(nm): 580 nm | EX(nm): 400 nm

C[n+]1ccc(C=Cc2ccccc2F)c2ccccc21.[I-] [Compound G29]
EM(nm): 560 nm | EX(nm): 450 nm

COc1ccc2c(ccc(C=Cc3cc(OC)c(OC)c(OC)c3)[n+]2C)c1.[I-] [Compound I13]
EM(nm): 580 nm | EX(nm): 430 nm

Cc1ccnc(-c2cc(C=Cc3ccc4ccc5cccc6ccc3c4c56)cc[n+]2C)c1.[I-] [Compound J41]
EM(nm): 630 nm | EX(nm): 460 nm

COc1ccc(C=Cc2cccc(C)[n+]2C)c2ccccc12.[I-] [Compound L14]
EM(nm): 570 nm | EX(nm): 420 (broad) nm

COc1ccc(C=Cc2cc[n+](C)cc2)cc1O.[I-] [Compound A15]
EM(nm): 510 nm

C[n+]1ccc(C=Cc2ccc3c(c2)OCO3)cc1.[I-] [Compound A39]
EM(nm): 540 nm | EX(nm): 430 nm

CN(C)c1ccc(C=Cc2cc[n+](C34CC5CC(CC(C5)C3)C4)cc2)cc1.[Br-] [Compound B19]
EM(nm): 610 nm | EX(nm): 380-540 nm

CN(C)c1ccc(C=Cc2cccc[n+]2C)c2ccccc12.[I-] [Compound C27]
EM(nm): 620 nm | EX(nm): 450 nm

COc1ccc(C=Cc2cc[n+](C)c3ccccc23)cc1OC.[I-] [Compound G11]
EM(nm): 600 nm | EX(nm): 420-480 nm

Cc1cccc(C=Cc2ccc(OCc3ccccc3)c(OCc3ccccc3)c2)[n+]1C.[I-] [Compound L12]
EM(nm): 520 nm | EX(nm): 390 nm

C[n+]1c(C=Cc2ccc(Cl)cc2)ccc2ccccc21.[I-] [Compound H6]
EM(nm): 640 nm | EX(nm): 530 nm

CN(C)c1ccc(C=Cc2cc[n+](C)c(Br)c2)c2ccccc12.[I-] [Compound F27]
EM(nm): 640 nm | EX(nm): 460 nm

Cc1ccnc(-c2cc(C=Cc3c4ccccc4cc4ccccc34)cc[n+]2C)c1.[I-] [Compound J34]
EM(nm): 630 nm | EX(nm): 430 nm

C[n+]1ccc(C=CC=Cc2ccccc2[N+](=O)[O-])cc1.[I-] [Compound A36]
EM(nm): 700 nm | EX(nm): 430 nm

CCc1ccc(C=Cc2cc(OC)c(OC)cc2OC)[n+](C)c1.[I-] [Compound E38]
EM(nm): 560 nm | EX(nm): 430 nm

COc1ccc2c(ccc(C=Cc3ccc([N+](=O)[O-])cc3)[n+]2C)c1.[I-] [Compound I22]
EM(nm): 510 nm | EX(nm): 360 nm

Cc1ccc(/C=C/c2ccc3ccccc3[n+]2C)cc1.[I-] [Compound H8]
EM(nm): 650 nm | EX(nm): 530 nm

C[n+]1c(/C=C/c2ccccc2)ccc2ccccc21.[I-] [Compound H2]
EM(nm): 640 nm | EX(nm): 480(weak) nm

Cc1cccc(/C=C/c2ccc(-c3ccccc3)cc2)[n+]1C.[I-] [Compound L17]
EM(nm): 500 nm | EX(nm): 420 nm

CCc1ccc(/C=C/c2ccc3c(c2)OCO3)[n+](C)c1.[I-] [Compound E39]
EM(nm): 500 nm | EX(nm): 390-420 (broad) nm

COc1ccc2c(ccc(C=Cc3ccccc3F)[n+]2C)c1.[I-] [Compound I29]
EM(nm): 580 nm

COc1cc(C=Cc2ccc3ccccc3[n+]2C)cc(OC)c1OC.[I-] [Compound H13]
EM(nm): 590 nm | EX(nm): 420 nm

C[n+]1ccc(C=Cc2cccc3ccccc23)cc1Br.[I-] [Compound F32]
EM(nm): 530 nm | EX(nm): 410 nm

COc1cc(OC)c(OC)cc1C=Cc1cccc[n+]1C.[I-] [Compound C38]
EM(nm): 580 nm | EX(nm): 420 nm

COc1ccc(C=Cc2cc[n+](C)c(-c3cc(C)ccn3)c2)cc1OC.[I-] [Compound J11]
EM(nm): 560 nm | EX(nm): 420 nm

Cc1ccnc(-c2cc(C=Cc3ccc(N(C)C)c4ccccc34)cc[n+]2C)c1.[I-] [Compound J27]
EM(nm): 670 nm | EX(nm): 460 nm

Fc1ccc(C=Cc2cc[n+](C34CC5CC(CC(C5)C3)C4)cc2)cc1.[Br-] [Compound B30]
EM(nm): 590 nm

Cc1cccc(C=Cc2ccc(N(C)C)c3ccccc23)[n+]1C.[I-] [Compound L27]
EM(nm): 620 nm | EX(nm): 430 nm

CN(C)c1ccc(/C=C/C=C/c2cc[n+](C)c3ccccc23)cc1.[I-] [Compound G37]
EM(nm): 670 nm | EX(nm): 530 nm

C[n+]1ccc(C=Cc2ccc([N+](=O)[O-])cc2)cc1.[I-] [Compound A22]
EM(nm): 540 nm | EX(nm): 400 nm

Cc1cccc(/C=C/c2c[nH]c3ccccc23)[n+]1C.[I-] [Compound L24]
EM(nm): 500 nm | EX(nm): 430 nm

C[n+]1ccc(C=Cc2ccc3ccc4cccc5ccc2c3c45)c2ccccc21.[I-] [Compound G41]
EM(nm): 660 nm | EX(nm): 500 nm

C[n+]1ccccc1C=Cc1ccc2c(c1)OCO2.[I-] [Compound C39]
EM(nm): 520 nm | EX(nm): 340 nm

COc1ccc(/C=C/c2cc[n+](C)c(Br)c2)cc1.[I-] [Compound F10]
EM(nm): 520 nm | EX(nm): 460 nm

Cc1ccccc1C=Cc1ccc2ccccc2[n+]1C.[I-] [Compound H7]
EM(nm): 650 nm | EX(nm): 420 nm

C[n+]1ccccc1C=Cc1cccc2ccccc12.[I-] [Compound C32]
EM(nm): 550 nm | EX(nm): 390 nm
